Test: Human HepG2 cell viability assay in 384 well format
Format: toxicity, cell-based
Set-up: dose 125 nL, time 70.5 hour; cytotoxicity at 70.5 h: concentration not given beside the values
Settings: HepG2 cells, read-out: Inhibition

Row | SMILES | cytotoxicity at 70.5 h [%]
1 | O=C(c1ccco1)N1CCC2(CC1)CCN(c1ncccn1)CC2 | 4.21
2 | CS(=O)(=O)N1C[C@H]2C[C@H](C(=O)N3CCOCC3)[C@@H](C1)O2 | -6.47
3 | O=C1CCC2(CCCN(C(=O)NCc3ccccc3)CC2)N1 (stereo not drawn) | -8.58
4 | O=C(NC1CC1)N1CC[C@H]2[C@H]1CCN2c1ncccn1 | -6.35
5 | CC(=O)N1CCC2(CCCN(S(=O)(=O)c3ccc(F)cc3)C2)C1 (stereo not drawn) | 5.56
6 | NC(=O)N1CCC2(CC1)CC(=O)N(CC1CCCO1)c1ccccc12 (stereo not drawn) | 5.57
7 | CO[C@H]1CCN(C(=O)c2cc(C)on2)[C@H]1Cc1ccncc1 | -7.23
8 | Cc1cccc(CN2CCC3(CCN(c4ncccn4)C3)C2=O)c1 (stereo not drawn) | -8.75
9 | O=C(CC1CC1)N1C[C@@H]2CN(c3ccccc3)C(=O)[C@@H]2C1 | -8.68
10 | O=C(c1ccco1)N1CCC12CCN(c1ncc(F)cn1)CC2 | 0.431
11 | O=C1CC2(CCN(S(=O)(=O)c3cccs3)C2)CN1c1cccc(F)c1 (stereo not drawn) | -9.07
12 | COc1ccc(C[C@H]2CN(C(=O)CS(C)(=O)=O)CC[C@H]2OC)cc1 | -4.64
13 | Cc1ccccc1N1CC2(CCN(S(=O)(=O)c3ccccc3)C2)CC1=O (stereo not drawn) | -7.42
14 | COc1ccc(C[C@H]2CN(C(=O)c3ccn(C)n3)CC[C@H]2OC)cc1 | -0.598
15 | COc1ccc(C[C@H]2CN(C(=O)c3cnoc3)CC[C@@H]2OC)cc1 | -3.97
16 | CS(=O)(=O)N1CC2(CCN(C(=O)c3csnn3)CC2)c2ccccc21 | -4.79
17 | Cc1ccccc1CN1CCC2(CCCN2C(=O)C(C)C)CC1 | 32.8
18 | CN(C)CC(=O)N1CC2(CCN(Cc3ccccc3)C2)C1 | 35.2
19 | COCCC(=O)N1C[C@H]2CN(Cc3cccc(C)c3)C(=O)[C@H]2C1 | -10.7
20 | O=C(N1CCCC1)N1CCC2(CC1)C(=O)N(CC1CC1)c1ccccc12 | -20.3
21 | O=C1C[C@H]2[C@@H](CCN2C(=O)c2cscn2)N1Cc1cccnc1 | -20.8
22 | Cc1cccc(CN2C[C@@H]3CN(C(=O)C4CC=CC4)C[C@@H]3C2=O)n1 | -14.7
23 | O=C1C[C@H]2[C@@H](CCN2C(=O)Cc2cccs2)N1CC1CC1 | -13.5
24 | CC(=O)N1[C@H](Cn2cncn2)C[C@@H]2CN(C(=O)c3ccoc3)CC[C@@H]21 | -6.21
25 | CCN1C(=O)CCCC12CCCN(C(=O)c1ccoc1C)C2 (stereo not drawn) | -10.9

Row | SMILES | cytotoxicity at 70.5 h [%]
26 | O=C(C1CCOC1)N1CCC2(CCCNC2)CC1 (stereo not drawn) | -8.86
27 | O=C(Cc1cccs1)N1CC[C@H]2[C@H]1CCN2Cc1cccnc1 | -6.88
28 | COCC(=O)N1CCc2c(CNS(C)(=O)=O)n[nH]c2C1 | -5.36
29 | CCCS(=O)(=O)N1CCC2(CC(=O)N(c3cnn(C)c3)C2)C1 (stereo not drawn) | -7.78
30 | O=C1NC(c2ccccc2)=N[C@@]12CC[C@@H]1CN(Cc3ccncc3)C[C@@H]12 | -13.9
31 | c1coc(CN2CCc3ncnc(C4CCOC4)c3CC2)c1 (stereo not drawn) | -9.16
32 | CCOCC(=O)N1CCC[C@]2(C[C@@H](OCc3ccncc3)CO2)C1 | -7.17
33 | COc1ncccc1CN1C[C@H](C(=O)N2CCCO2)[C@@H]2CCO[C@@H]2C1 | -6.23
34 | CCS(=O)(=O)N1CCC2(CC(=O)N(c3ccc4c(c3)OCO4)C2)C1 (stereo not drawn) | 7.63
35 | Cn1cccc1C(=O)NCc1cnc2n1CCN(c1ccccn1)C2 | -3.68
36 | NCC1[C@H]2CN(Cc3ccccc3F)C[C@@H]12 (stereo partly drawn) | -6.6
37 | CO[C@@H]1CCN(C(=O)c2ccsc2)[C@@H]2CN(CC3CC3)C[C@@H]21 | -4.96
38 | CNC(=O)CC1CC2(CCN(CC3CC3)CC2)Oc2ccccc21 (stereo not drawn) | -6.72
39 | CN1C(=O)CC(c2cnn(C)c2)C12CCN(CC1CCOCC1)CC2 (stereo not drawn) | -9.88
40 | CO[C@H]1CCN(C(=O)c2ccsc2)[C@@H]2CN(CC3CC3)C[C@H]12 | -7.14
41 | O=C(CC1CC2(CCN(CC3CC3)CC2)Oc2ccccc21)NC1CC1 (stereo not drawn) | -5.53
42 | CC(C)C(=O)N1CC[C@H]2N(C)CC[C@@]2(C(=O)N2CCCC2)CC1 | -7.87
43 | COCCN1CC2(CCN(C(=O)c3ccno3)CC2)c2ccccc21 | 27.9
44 | CC(=O)N1CC[C@H]2OCC[C@@]2(C(=O)NCCc2ccccn2)C1 | 4.18
45 | COCCN1CCC2(CC1)CC(NC(=O)C1CC1)c1ccccc1O2 (stereo not drawn) | -5.15
46 | CC(C)CC(=O)NC1CC2(CCN(CCF)CC2)Oc2ccccc21 (stereo not drawn) | -6.46
47 | Cc1cc(C(=O)N2CC[C@@H](N(C)C)[C@@H]2Cc2ccccc2)no1 | -0.0942
48 | CN(C)CCN1C(=O)CCC12CCCN(C(=O)N(C)C)CC2 (stereo not drawn) | 0.00398
49 | CC(=O)N1CCCC2(CCC(=O)N2Cc2cccnc2)C1 (stereo not drawn) | 30.1
50 | Cc1cccc(CN2CCc3nnc(Cn4cccc4)n3CC2)n1 | -5.46

Row | SMILES | cytotoxicity at 70.5 h [%]
51 | CC(C)N1CCC2(C=C(C(=O)NC3CC3)c3ccccc32)CC1 | -1.67
52 | CC(=O)N1[C@H](CN(C)C)C[C@@H]2CN(C(=O)c3cnc(C)cn3)CC[C@@H]21 | -5.19
53 | CC(=O)N1[C@H](CN(C)C)C[C@@H]2CN(C(=O)c3cccn3C)CC[C@@H]21 | -11.1
54 | O=C(NC1CC1)C1=CC2(CCN(CCO)CC2)c2ccccc21 | -11
55 | CCOC1COC2(CCN(Cc3cccc(C#N)c3)CC2)C1 (stereo not drawn) | -8.68
56 | c1csc(CN2CCc3ncnc(C4CCOC4)c3CC2)c1 (stereo not drawn) | -8.76
57 | O=C(O)[C@]12CCCN(Cc3ccco3)C[C@H]1CN(c1ncccn1)C2 | -12.1
58 | CC(C)NC(=O)[C@H]1C[C@@H]2[C@@H](C1)OCCN2Cc1ccsc1 | -6.32
59 | CC(C)Oc1ncnc2c1CCN(Cc1ccco1)CC2 | -2.84
60 | Fc1ccc(CN2CCc3ncnc(C4CCOC4)c3CC2)cc1 (stereo not drawn) | -5.46
61 | O=C([C@H]1CN(Cc2ccccc2F)C[C@H]2OCC[C@@H]12)N1CCCO1 | 1.95
62 | CN(C)C(=O)CO[C@H]1CN(Cc2cccc(C#N)c2)[C@@H]2COC[C@H]12 | 7.63
63 | Cc1noc(C)c1CN1CCn2cc(CNC(=O)C3CCC3)nc2C1 | -12.7
64 | Cn1nnc2c1CCN(C(=O)C1CCC1)C2COCCN1CCCC1 (stereo not drawn) | -2.83
65 | O=C(NCc1cn2c(n1)CN(Cc1cccc(F)c1)CC2)C1CCC1 | -3.08
66 | O=C(N[C@@H]1CN(C2CCCC2)C[C@@H]2CCCO[C@@H]21)c1cnccn1 | -12.5
67 | O=C1Nc2ccccc2C12CCN(Cc1ccccn1)CC2 | 0.291
68 | CN1CC[C@H]2OCC[C@@]2(C(=O)NCCc2ccccn2)C1 | 21.6
69 | CC[C@H]1N(CC2CCC2)CCC[C@]12CCC(=O)N2Cc1ccncc1 | -5.93
70 | O=C1CC[C@@H]2[C@@H](CCN2Cc2ccccn2)N1CC1CC1 | -3.44
71 | CC(C)NC(=O)[C@H]1C[C@@H]2[C@@H](C1)OCCN2Cc1ccccn1 | -5.2
72 | O=C1C[C@H]2[C@@H](CCN2Cc2ccccn2)N1CCN1CCOCC1 | 6.45
73 | O=C1C[C@H]2[C@@H](CCN2Cc2ccccn2)N1Cc1cccnc1 | -6.81
